The source of these data is patent US20210092956A1, “Safening Rice Against Group 15 Herbicides” (THE BOARD OF TRUSTEES OF THE UNIVERSITY OF ARKANSAS, priority 2019, published 2021).

Data set [1] deals with Diamond rice. Further details: species or system Oryza sativa L. The conditions noted are these: in vivo. On the procedure:
The experiment was conducted within a growth chamber at 13.8° C. (night) and 23.8° C. (day) using a 10-hour night and 14-hour day photoperiod. Diamond rice was planted in pots filled to the same weight of soil to maintain 80% soil moisture throughout the experiment. […] Data were analyzed using R and subjected to ANOVA. Means were separated using Fisher's LSD (α=0.05).

Data set [2] relates to barnyardgrass. The data set can be described thus: Field weed control with ME acetochlor, barnyardgrass. It is filed as in vivo, Echinochloa crus-galli. The conditions noted are these: fenclorim seed treatment with ME acetochlor. How it is done:
(§1) The experiment was conducted under standard small-plot research practices. Diamond rice was planted at 72 seeds m^−1 row. […] Data were analyzed using R and subjected ANOVA. Means were separated using Fisher's LSD (α=0.05).

For data set [3], the system named is weedy rice or red rice. The data set can be described thus: Field weed control with ME acetochlor, weedy rice. In kind it is in vivo, Oryza sativa L. var. sylvatica. The settings on record: fenclorim seed treatment with ME acetochlor. On the procedure:
as §1

In data set [1], `Clc1cc(Cl)nc(-c2ccccc2)n1` [fenclorim, 4,6-dichloro-2-phenyl-pyrimidine] yielded a Biomass of 99%, a Height of 13.7 cm, an Injury of 0% and a Stand reduction of 3%. Besides, in data set [2], the “effect of the seed treatment on weed control” value is reported as “did not negatively affect weed control”. Further, in data set [3], the “effect of the seed treatment on weed control” value is given as “did not negatively affect weed control”.
